Laboratory results as given in patent publication US20130008801A1, “METHODS AND COMPOSITIONS FOR APPLICATIONS RELATED TO MICROBIOLOGICALLY INFLUENCED CORROSION” (priority 2010, published 2013).

Legend:
[1] = tested on: planktonic or sessile SRB; assay: SRB growth in the culture medium with MIC promoter; assay type: cell-based, Desulfovibrio desulfuricans (ATCC 7757); conditions: culture medium used in this work; repeated experiments
From the text: Second, the BCSR theory points to the existence of “MIC promoters.” Guided by this, we have successfully found a class of chemicals that can greatly accelerate BCSR leading to much more severe MIC pitting. […] This discovery leads to a new aspect of MIC monitoring, and a non-biocidal mitigation method that may even allow us to live with corrosive microbes with much reduced MIC pitting when the promoter's MIC acceleration effect is inhibited.
(§1) The BCSR theory indicates a bottleneck in MIC due to SRB. To resolve the bottleneck, an electron carrier or mediator was added as an MIC “promoter” into 100 ml anaerobic vials containing SRB and carbon steel coupons. This MIC promoter is not corrosive by itself. After a week of SRB growth, coupons were examined using SEM and IFM (Infinite Focus Microscopy). Desulfovibrio desulfuricans ATCC7757 was used to represent SRB in this work. […] Liquid medium was deoxygenated using nitrogen sparging. To study the pits on a carbon steel coupon, the coupon surface was cleaned using an acid solution before SEM and IFM.

[2] = tested on: Desulfovibrio desulfuricans ATCC7757 (SRB) on carbon steel coupons; assay: MIC pitting test: SRB with carbon steel coupons in anaerobic vials, pits examined by SEM and IFM; assay type: cell-based, Desulfovibrio desulfuricans (ATCC 7757); conditions: promoter added to the test medium at a low concentration; C1018 carbon steel coupon, ATCC 1249 medium, 37° C., 7 days; versus no promoter (FIG. 2)
Method: Y-axis is pit depth in microns and x-axis pit position in microns.
as §1

MIC pit depth [2]: dramatic MIC pit depth increase
Compound: Cc1cc2nc3c(=O)[nH]c(=O)nc-3n(C[C@H](O)[C@H](O)[C@H](O)CO)c2cc1C [riboflavin]
planktonic or sessile SRB growth [1]: did not promote planktonic or sessile SRB growth
